Source: ChEMBL document CHEMBL1141727, “Isolation and cytotoxic evaluation of marine sponge-derived norterpene peroxides” (J Nat Prod, 1998)

Key:
Type in all cases: functional
CCRF-CEM = assay: Growth inhibition of human CCRF-CEM cells
HL-60(TB) = assay: Growth inhibition of human HL-60(TB) cells
MOLT-4 = assay: Growth inhibition of human MOLT4 cells
[1] = Growth inhibition of human […] cells
SR = assay: Growth inhibition of human SR cells
A549 = assay: Growth inhibition of human A549 cells
EKVX = assay: Growth inhibition of human EKVX cells
HOP-62 = assay: Growth inhibition of human HOP62 cells
HOP-92 = assay: Growth inhibition of human HOP92 cells
NCI-H226 = assay: Growth inhibition of human NCI-H226 cells
NCI-H23 = assay: Growth inhibition of human NCI-H23 cells
NCI-H322M = assay: Growth inhibition of human NCI-H322M cells
NCI-H460 = assay: Growth inhibition of human NCI-H460 cells
NCI-H522 = assay: Growth inhibition of human NCI-H522 cells
COLO 205 = assay: Growth inhibition of human COLO205 cells
HCC 2998 = assay: Growth inhibition of human HCC2998 cells
HCT-116 = assay: Growth inhibition of human HCT116 cells
HCT-15 = assay: Growth inhibition of human HCT15 cells
HT-29 = assay: Growth inhibition of human HT-29 cells
KM12 = assay: Growth inhibition of human KM12 cells
SW-620 = assay: Growth inhibition of human SW620 cells
SF-295 = assay: Growth inhibition of human SF295 cells
SF-539 = assay: Growth inhibition of human SF539 cells
SNB-19 = assay: Growth inhibition of human SNB19 cells
SNB-75 = assay: Growth inhibition of human SNB75 cells
U-251 = assay: Growth inhibition of human U251 cells
Malme-3M = assay: Growth inhibition of human MALME-3M cells
M14 = assay: Growth inhibition of human M14 cells
SK-MEL-2 = assay: Growth inhibition of human SK-MEL-2 cells
SK-MEL-28 = assay: Growth inhibition of human SK-MEL-28 cells
SK-MEL-5 = assay: Growth inhibition of human SK-MEL-5 cells
UACC-257 = assay: Growth inhibition of human UACC257 cells
UACC-62 = assay: Growth inhibition of human UACC62 cells
IGROV-1 = assay: Growth inhibition of human IGROV1 cells
OVCAR-3 = assay: Growth inhibition of human OVCAR-3 cells
OVCAR-4 = assay: Growth inhibition of human OVCAR4 cells
OVCAR-5 = assay: Growth inhibition of human OVCAR5 cells
OVCAR-8 = assay: Growth inhibition of human OVCAR8 cells
SK-OV-3 = assay: Growth inhibition of human SKOV3 cells
786-0 = assay: Growth inhibition of human 786-0 cells
A498 = assay: Growth inhibition of human A498 cells
ACHN = assay: Growth inhibition of human ACHN cells
CAKI-1 = assay: Growth inhibition of human Caki1 cells
RXF 393 = assay: Growth inhibition of human […] cells
SN12C = assay: Growth inhibition of human SN12C cells
UO-31 = assay: Growth inhibition of human UO31 cells
DU-145 = assay: Growth inhibition of human DU145 cells
MCF7 = assay: Growth inhibition of human MCF7 cells
[2] = Growth inhibition of human MCF7/ADR resistant cells; settings: NCI/ADR-RES
MDA-MB-231 = assay: Growth inhibition of human MDA-MB-231 cells
[3] = Growth inhibition of human Hs 578T cells
MDA-MB-435 = assay: Growth inhibition of human MDA-MB-435 cells
MDA-N = assay: Growth inhibition of human MDA-N cells
BT-549 = assay: Growth inhibition of human BT549 cells
T47D = assay: Growth inhibition of human T47D cells
L1210 = assay: Growth inhibition of mouse L1210 cells assessed as zone units at 50 ug/disk by disk diffusion agar colony formation assay
P388 = assay: Growth inhibition of mouse P388 cells assessed as zone units at 50 ug/disk by disk diffusion agar colony formation assay
PO3 = assay: Growth inhibition of mouse PO3 cells assessed as zone units at 50 ug/disk by disk diffusion agar colony formation assay
[4] = Growth inhibition of mouse M17/ADR cells assessed as zone units at 50 ug/disk by disk diffusion agar colony formation assay
[5] = Growth inhibition of human H116 cells assessed as zone units at 50 ug/disk by disk diffusion agar colony formation assay
SF-268 = assay: Growth inhibition of human SF268 cells
LOX IMVI = assay: Growth inhibition of human LOXIMVI cells
TK-10 = assay: Growth inhibition of human TK10 cells
PC-3 = assay: Growth inhibition of human PC3 cells

Q: Which GI50 (CCRF-CEM) does the source give for `CC(=O)CC/C=C(\C)CCC1=C(C)CCCC1(C)C` here?
A: 2940 nM

Q: What about the GI50 (HL-60(TB)) of the same compound?
A: 2880 nM

Q: What about the GI50 (MOLT-4) of the same compound?
A: 2080 nM

Q: And the GI50 [1]?
A: > 15 µM

Q: What about the GI50 (SR) of the same compound?
A: 4.94 µM

Q: And the GI50 (A549)?
A: > 15000 nM

Q: And the GI50 (EKVX)?
A: > 15000 nM

Q: What about the GI50 (HOP-62) of the same compound?
A: > 15000 nM

Q: And the GI50 (HOP-92)?
A: > 15000 nM

Q: What about the GI50 (NCI-H226) of the same compound?
A: > 15 µM

Q: And the GI50 (NCI-H23)?
A: > 15000 nM

Q: And the GI50 (NCI-H322M)?
A: > 15 µM

Q: And the GI50 (NCI-H460)?
A: > 15000 nM

Q: And the GI50 (NCI-H522)?
A: > 15 µM

Q: What about the GI50 (COLO 205) of the same compound?
A: > 15000 nM

Q: What about the GI50 (HCC 2998) of the same compound?
A: > 15000 nM

Q: What about the GI50 (HCT-116) of the same compound?
A: > 15000 nM

Q: What about the GI50 (HCT-15) of the same compound?
A: > 15000 nM

Q: What about the GI50 (HT-29) of the same compound?
A: > 15000 nM

Q: What about the GI50 (KM12) of the same compound?
A: 8.61 µM

Q: What about the GI50 (SW-620) of the same compound?
A: 6.34 µM

Q: And the GI50 (SF-295)?
A: > 15000 nM

Q: What about the GI50 (SF-539) of the same compound?
A: > 15000 nM

Q: What about the GI50 (SNB-19) of the same compound?
A: < 1.5 nM

Q: And the GI50 (SNB-75)?
A: 5150 nM

Q: And the GI50 (U-251)?
A: > 15000 nM

Q: And the GI50 (Malme-3M)?
A: > 15 µM

Q: What about the GI50 (M14) of the same compound?
A: < 1.5 nM

Q: What about the GI50 (SK-MEL-2) of the same compound?
A: > 15 µM

Q: And the GI50 (SK-MEL-28)?
A: > 15000 nM

Q: What about the GI50 (SK-MEL-5) of the same compound?
A: > 15000 nM

Q: And the GI50 (UACC-257)?
A: > 15 µM

Q: What about the GI50 (UACC-62) of the same compound?
A: > 15 µM

Q: What about the GI50 (IGROV-1) of the same compound?
A: 9.53 µM

Q: What about the GI50 (OVCAR-3) of the same compound?
A: > 15000 nM

Q: What about the GI50 (OVCAR-4) of the same compound?
A: > 15000 nM

Q: What about the GI50 (OVCAR-5) of the same compound?
A: > 15000 nM

Q: And the GI50 (OVCAR-8)?
A: > 15000 nM

Q: And the GI50 (SK-OV-3)?
A: > 15000 nM

Q: What about the GI50 (786-0) of the same compound?
A: > 15000 nM

Q: What about the GI50 (A498) of the same compound?
A: > 15000 nM

Q: And the GI50 (ACHN)?
A: > 15000 nM

Q: And the GI50 (CAKI-1)?
A: > 15000 nM

Q: And the GI50 (RXF 393)?
A: > 15000 nM

Q: What about the GI50 (SN12C) of the same compound?
A: 9.48 µM

Q: And the GI50 (UO-31)?
A: > 15000 nM

Q: And the GI50 (DU-145)?
A: > 15 µM

Q: What about the GI50 (MCF7) of the same compound?
A: > 15 µM

Q: And the GI50 [2]?
A: > 15000 nM

Q: And the GI50 (MDA-MB-231)?
A: > 15000 nM

Q: And the GI50 [3]?
A: 1860 nM

Q: And the GI50 (MDA-MB-435)?
A: > 15000 nM

Q: And the GI50 (MDA-N)?
A: > 15000 nM

Q: And the GI50 (BT-549)?
A: > 15000 nM

Q: What about the GI50 (T47D) of the same compound?
A: > 15000 nM

Q: What about the Activity (L1210) of the same compound?
A: 60 Zone units

Q: And the Activity (P388)?
A: 60 Zone units

Q: And the Activity (PO3)?
A: 40 Zone units

Q: And the Activity [4]?
A: 0 Zone units

Q: And the Activity [5]?
A: 30 Zone units

Q: For `C=C1CCC[C@H]2[C@](C)(CC[C@]3(C)CC[C@@H]([C@@H](C)C(=O)O)OO3)[C@@H](C)CC[C@]12C` [SIGMOSCEPTRELLIN C], which GI50 (HL-60(TB)) is on record?
A: 140 nM

Q: What about the GI50 (MOLT-4) of the same compound?
A: 840 nM

Q: And the GI50 (A549)?
A: 940 nM

Q: And the GI50 (EKVX)?
A: 1090 nM

Q: And the GI50 (HOP-62)?
A: 1040 nM

Q: What about the GI50 (HOP-92) of the same compound?
A: 1080 nM

Q: What about the GI50 (NCI-H226) of the same compound?
A: > 5 µM

Q: And the GI50 (NCI-H23)?
A: 1000 nM

Q: And the GI50 (NCI-H322M)?
A: 4.19 µM

Q: What about the GI50 (NCI-H460) of the same compound?
A: 600 nM

Q: What about the GI50 (COLO 205) of the same compound?
A: 970 nM

Q: And the GI50 (HCC 2998)?
A: 1030 nM

Q: And the GI50 (HCT-116)?
A: 1060 nM

Q: What about the GI50 (HCT-15) of the same compound?
A: 1160 nM

Q: What about the GI50 (HT-29) of the same compound?
A: 1030 nM

Q: And the GI50 (KM12)?
A: 0.95 µM

Q: What about the GI50 (SW-620) of the same compound?
A: 1.16 µM

Q: And the GI50 (SF-268)?
A: 1040 nM

Q: And the GI50 (SF-295)?
A: 820 nM

Q: What about the GI50 (SF-539) of the same compound?
A: 1070 nM

Q: And the GI50 (SNB-19)?
A: > 5000 nM

Q: What about the GI50 (SNB-75) of the same compound?
A: 830 nM

Q: What about the GI50 (U-251) of the same compound?
A: 930 nM

Q: What about the GI50 (LOX IMVI) of the same compound?
A: 160 nM

Q: And the GI50 (M14)?
A: > 5000 nM

Q: And the GI50 (SK-MEL-2)?
A: > 5 µM

Q: What about the GI50 (SK-MEL-28) of the same compound?
A: 2370 nM

Q: And the GI50 (SK-MEL-5)?
A: 1940 nM

Q: What about the GI50 (UACC-257) of the same compound?
A: > 5 µM

Q: And the GI50 (IGROV-1)?
A: 0.1 µM

Q: And the GI50 (OVCAR-3)?
A: 990 nM

Q: What about the GI50 (OVCAR-4) of the same compound?
A: 950 nM

Q: What about the GI50 (OVCAR-5) of the same compound?
A: 2720 nM

Q: What about the GI50 (OVCAR-8) of the same compound?
A: 2530 nM

Q: What about the GI50 (SK-OV-3) of the same compound?
A: 970 nM

Q: What about the GI50 (786-0) of the same compound?
A: 500 nM

Q: And the GI50 (A498)?
A: 1590 nM

Q: And the GI50 (ACHN)?
A: 920 nM

Q: What about the GI50 (CAKI-1) of the same compound?
A: 600 nM

Q: And the GI50 (RXF 393)?
A: 2950 nM

Q: And the GI50 (SN12C)?
A: 0.78 µM

Q: What about the GI50 (TK-10) of the same compound?
A: 1490 nM

Q: What about the GI50 (UO-31) of the same compound?
A: 900 nM

Q: What about the GI50 (PC-3) of the same compound?
A: 1770 nM

Q: And the GI50 (MCF7)?
A: 3.79 µM

Q: What about the GI50 [2] of the same compound?
A: 770 nM

Q: And the GI50 (MDA-MB-231)?
A: 1810 nM

Q: And the GI50 (MDA-MB-435)?
A: 2060 nM

Q: What about the GI50 (MDA-N) of the same compound?
A: 910 nM

Q: And the GI50 (BT-549)?
A: 960 nM

Q: What about the GI50 (T47D) of the same compound?
A: 860 nM

Q: What about the Activity (L1210) of the same compound?
A: 220 Zone units

Q: What about the Activity (P388) of the same compound?
A: 220 Zone units

Q: What about the Activity (PO3) of the same compound?
A: 190 Zone units

Q: What about the Activity [4] of the same compound?
A: 220 Zone units

Q: And the Activity [5]?
A: 230 Zone units
